Assay results published in US10054581B1, “Inhibitors of notch signaling pathway and use thereof in treatment of cancers” (Ecole Polytechnique Federale de Lausanne (EPFL), priority 2011, dated 2018).
Entries after “also recorded” stand apart in the source; their conditions may differ.

Tested on: Notch signalling via DL4:N1 ligand-receptor pair (Notch1)
Assay: DL4:N1 coculture assay, Notch driven luciferase reporter
Format: cell-based, mouse
Conditions: DL4-N1 coculture assay; for Notch inhibitory activity of derivatives compared to parental compound I3: FIG. 10
Text: Mouse DL4-IRES dsRED cDNA was cloned into a pENTR1 vector (Invitrogen®) and finally shuttled into a destination lentivirus vector using Gateway cloning strategy (Invitrogen). A Phosphoglycerate kinase (PGK) promoter drove the expression of DL4 protein. DL4-lentiviral particles were produced in 293T cells by cotransfection of DL4-lentivirus vector, Gag/pol expression plasmid and plasmid encoding for viral envelope proteins. To overexpress Notch1 protein, mouse full length Notch1 cDNA was a cloned in a pCDNA3.1-IRES-puromycin vector. Notch1 cDNA was cloned upstream of IRES-puromycin between HindIII and XbaI restriction sites. A CMV promoter controlled the expression of Notch1 protein.
To measure the Notch signalling activation, CSL/RBP-jk consensus DNA binding sequences were cloned in a head to tail conformation in the pGL4 luciferase vector (Promega), thus named 12×CSL/RBP-jjk luciferase vector. In order to determine the Notch pathway activation in chemical compound screening assay, 12×CSL/RBP-jk consensus DNA binding sequences were cloned into pGL4.26.luciferase vector (Promega). As an internal control for transfection efficiency, SV40 Renilla vector was used (Promega).
In order to generate DL4 and N1 stable cell lines, HeLa cell were bought from ATCC (catalog # CCL-2). To generate DL4 stable lines, cells were transduced with DL4-lentiviral particles. DL4 stable clones were selected using puromycin. High DL4 expressing clones were sorted using antibodies against DL4 with Fluorescence activated cell sorting (FACS). To generate N1 stable line, cell were transfected with a pCDNA3.1+(Invitrogen) plasmid containing mouse full length Notch1 under the control of CMV promoter. To select for Notch1 expressing clones, an IRES puromycin cassette was cloned downstream of Notch1 cDNA. HeLa cells expressing high levels of Notch1 were enriched by FACS using anti-Notch1 antibodies. DL4- and N1-HeLa cells were cultured in DMEM (GIBCO, Invitrogen), 10% FCS and 10 ug/ml of puromycin (Sigma).
For chemical library screen, the coculture assay was performed as follows. N1-HeLa cells were cotransfected in 10 cm tissue culture dishes with 16 μg of pGL4.26. 12×CSL.luciferase vector/plate, 4 μg of Notch1 expression plasmid/plate, and 200 ng of SV40 Renilla vector/plate. DL4- and N1-HeLa cells were detached from the plate by using 0.5 mM EDTA (1×PBS). The both cell populations were counted and mixed in 1:1 ratio (5,000:5,000 cells/well in a 384 well plate) and dispensed into 384 well plates (white, clear bottom, Corning) using multidrop Combi plate dispenser. The assay plates were pre-dispensed (using automated Biomek 3000 liquid handler) with chemical compound libraries (Microsource NIMDS, Maybridge Hitfinder and Prestwick) to give a final concentration of 10 μM. The final assay volume was 22 μls. Twenty-four hours later, growth media was aspirated and cells were lysed with 1× Passive lysis buffer for 10 minutes at room temperature. Luciferase activity was measured using Luciferase Assay Reagent II and Renilla values were determined by using Stop and Glow reagent (Dual luciferase assay system, Cat #E1980, Promega). Luciferase and renilla readouts were taken using Tecan® F500 (Tecan) multiplate reader. All the liquid handling steps (aspiration of the medium, dispensing of Passive lysis buffer, Luciferase Assay Reagent II and Stop and Glow reagents) were performed using ELF406 liquid handler.
In order to identify novel modulators of the Notch pathway, Applicants have established a coculture assay in which DL4 ligand expressing HeLa cells were cultured with N1 HeLa cells, thereby activating the Notch pathway. The use of a DL4 and N1 HeLa cell coculture system mimics physiological conditions of cell-cell communication between ligand and receptor expressing cells. The in vitro generation of a controlled receptor-ligand assay system allowed Applicants to modify and monitor the Notch signal intensity by γ-secretase inhibitors. […]

For `CC(C)(C)c1ccc(Oc2ccc(N)cc2F)cc1` [I3-I, 4-(4-(tert-butyl)phenoxy)-3-fluoroaniline], the “ability to block Notch pathway activation in coculture assay (screening of derivatives)” value (“ability” for short) was “ability to block Notch pathway activation in coculture assay” and the “Notch inhibitory activity of derivatives compared to parental compound I3” value was “appear to have enhanced activity”.
For `CCC(C)(C)c1ccc(Oc2ccc(N)cc2)cc1` [I3-E, 4-(4-(tert-pentyl)phenoxy)aniline], the “ability” value was “ability to block Notch pathway activation in coculture assay” and the “Notch inhibitory activity of derivatives compared to parental compound I3” value was “block Notch signalling to comparable levels to parental compound I3; also recorded: exhibit anti-Notch activity comparable to 6-(4-Tert-Butylphenoxy)Pyridin-3-Amine (I3)”.
In the case of `CCC(C)(C)c1ccc(Oc2ccc(N)cn2)cc1` [I3-B, 6-(4-(tert-Pentyl)phenoxy)pyridin-3-amine], the “ability” value is reported as “ability to block Notch pathway activation in coculture assay” and the “Notch inhibitory activity of derivatives compared to parental compound I3” value is reported as “block Notch signalling to comparable levels to parental compound I3; also recorded: exhibit anti-Notch activity comparable to 6-(4-Tert-Butylphenoxy)Pyridin-3-Amine (I3)”.
With `Nc1ccc(Oc2ccc(C3CCCCC3)cc2)nc1` [I3-A, 6-(4-cyclohexylphenoxy)pyridin-3-amine] the “ability” value was “ability to block Notch pathway activation in coculture assay” and the “Notch inhibitory activity of derivatives compared to parental compound I3” value was “block Notch signalling to comparable levels to parental compound I3; also recorded: exhibit anti-Notch activity comparable to 6-(4-Tert-Butylphenoxy)Pyridin-3-Amine (I3)”.
`Nc1ccc(Oc2ccc(C3CCCCC3)cc2)c(F)c1` [I3-L, 4-(4-cyclohexylphenoxy)-3-fluoroaniline] was tested, and the “ability” value was “ability to block Notch pathway activation in coculture assay”.
In the case of `Nc1ccc(Oc2ccc(C3CCCCC3)cc2)cc1` [I3-F, 4-(4-cyclohexylphenoxy)aniline], the “ability” value is reported as “ability to block Notch pathway activation in coculture assay” and the “Notch inhibitory activity of derivatives compared to parental compound I3” value is reported as “appear to have enhanced activity”.
For `Nc1ccc(Oc2ccc(C34CC5CC(CC(C5)C3)C4)cc2)c(F)c1` [I3-P, 4-(4-((3r,5r,7r)-adamantan-1-yl)phenoxy)-3-fluoroaniline], the “ability” value was “ability to block Notch pathway activation in coculture assay”.
In the case of `CCCC(C)(C)c1ccc(Oc2ccc(N)cn2)cc1` [I3-N, 6-(4-(2-methylpentan-2-yl)phenoxy)pyridin-3-amine], the “ability” value is reported as “ability to block Notch pathway activation in coculture assay” and the “Notch inhibitory activity of derivatives compared to parental compound I3” value is reported as “block Notch signalling to comparable levels to parental compound I3; also recorded: exhibit anti-Notch activity comparable to 6-(4-Tert-Butylphenoxy)Pyridin-3-Amine (I3)”.
In the case of `CC(C)(C)CC(C)(C)c1ccc(Oc2ccc(N)cn2)cc1` [I3-K, 6-(4-(2,4,4-trimethylpentan-2-yl)phenoxy)pyridin-3-amine], the “ability” value is reported as “ability to block Notch pathway activation in coculture assay”.
In the case of `CC(C)(C)c1cccc(Oc2ccc(N)cn2)c1` [I3-H, 6-(3-(tert-butyl)phenoxy)pyridin-3-amine], the “ability” value is reported as “ability to block Notch pathway activation in coculture assay” and the “Notch inhibitory activity of derivatives compared to parental compound I3” value is reported as “block Notch signalling to comparable levels to parental compound I3; also recorded: exhibit anti-Notch activity comparable to 6-(4-Tert-Butylphenoxy)Pyridin-3-Amine (I3)”.
`CC(C)c1ccc(Oc2ccc(N)cc2)cc1` [I3-J, 4-(4-isopropylphenoxy)aniline] was tested, and the “ability” value was “ability to block Notch pathway activation in coculture assay”.
For `Nc1ccc(Oc2ccc(C34CC5CC(CC(C5)C3)C4)cc2)cc1` [I3-O, 4-(4-((3r,5r,7r)-adamantan-1-yl)phenoxy)aniline], the “ability” value was “ability to block Notch pathway activation in coculture assay”.
In the case of `Nc1ccc(Oc2ccc(C34CC5CC(CC(C5)C3)C4)cc2)nc1` [I3-G, 6-(4-((3r,5r,7r)-adamantan-1-yl)phenoxy)pyridin-3-amine], the “ability” value is reported as “ability to block Notch pathway activation in coculture assay” and the “Notch inhibitory activity of derivatives compared to parental compound I3” value is reported as “block Notch signalling to comparable levels to parental compound I3; also recorded: exhibit anti-Notch activity comparable to 6-(4-Tert-Butylphenoxy)Pyridin-3-Amine (I3)”.
`CC(C)(C)c1ccc(Oc2ccc(N)cc2)cc1` [I3-C, 4-(4-(tert-butyl)phenoxy)aniline] was tested, and the “ability” value was “ability to block Notch pathway activation in coculture assay” and the “Notch inhibitory activity of derivatives compared to parental compound I3” value was “block Notch signalling to comparable levels to parental compound I3; also recorded: exhibit anti-Notch activity comparable to 6-(4-Tert-Butylphenoxy)Pyridin-3-Amine (I3)”.
`CCCCc1ccc(Oc2ccc(N)cn2)cc1` [I3-D, 6-(4-Butylphenoxy)pyridin-3-amine] was tested, and the “ability” value was “ability to block Notch pathway activation in coculture assay”.
For `CCC(C)(C)c1ccc(Oc2ccc(N)cc2F)cc1` [I3-M, 3-fluoro-4-(4-(tert-pentyl)phenoxy)aniline], the “ability” value was “ability to block Notch pathway activation in coculture assay” and the “Notch inhibitory activity of derivatives compared to parental compound I3” value was “block Notch signalling to comparable levels to parental compound I3; also recorded: exhibit anti-Notch activity comparable to 6-(4-Tert-Butylphenoxy)Pyridin-3-Amine (I3)”.
